In assay [1] the test system is SUDHL5. Description: Anti-proliferative effect in SUDHL5 cells, CellTiter-Glo (Assay 7). It counts as cell-based. Summed up: (§1)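 72 h CTG viability assay, 37 °C, humidified. Time-zero plate as baseline; IC50 vs day 0 and DMSO controls.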
Assay [2] addresses T1, MCL1 protein (Homo sapiens, UniProt Q07820).
T1 construct: this assay uses full length endogenous MCL1 protein at mitochondria outer membrane; endogenous in cells; host or cells: RKO colon cancer cell line
Description: PIxEL: protein-protein interaction in permeabilized cells by ELISA (Assay 5). The format is cell-based. The note with it: permeabilized RKO cells, biotin-BIM BH3 peptide 0.2 μM, serum free. The protocol:
PIxEL: Protein-Protein Interaction in Permeabilized Cells by ELISA
Most MCL1 protein molecules are localized at the mitochondria outer membrane and sequester pro-apoptotic proteins through binding of their BCL2 homology domain 3 (BH3 domain). MEB buffer (150 mM mannitol, 10 mM HEPES pH 7.5, 50 mM KCl, 20 μM EDTA, 20 μM EGTA, 5 mM potassium succinate, 0.1% protease-free BSA (SIGMA) with low dose digitonin (0.002%) permeabilizes plasma membrane while leaves live mitochondria, where MCL1 maintains its native localization and conformation. Unlike biophysical assays (e.g. TR-FRET) that use truncated recombinant MCL1 protein, this assay uses full length endogenous MCL1 protein at mitochondria outer membrane. It measures the interaction between MCL1 protein and biotinylated BIM BH3 peptide. Compounds can compete with BIM BH3 peptide to bind to MCL1 protein.
On day 1, RKO colon cancer cell line cells were plated at 0.8 million cells/ml, 100 μl/well in 96-well flat bottom TC plates (Corning). […] Each plate was tapped to make sure liquid covering entire bottom of wells and incubate at 37° C. overnight.
On the second day, MCL1 antibody was washed from ELISA plate. 250 μl Odyssey® Blocking Buffer (PBS) (Li-Cor) was added to each well, incubated at room temperature for at least 1 hour, then washed once with 250 μl 1×PBST. Plates with RKO cells were gently washed once with 100 μl/well PBS, once with 100 μl/well MEB buffer without digitonin, then 100 μl of MEB buffer with 0.002% digitonin was gently added to each well. Compounds were added with HP Tecan compound dispenser in 3-fold dilution series, highest dose 30 μM, 10-dose per compound in quadruplicates. Biotin-BIM peptide (synthesized by 21st Century) was added with HP Tecan compound dispenser at 0.2 μM immediately after the addition of compounds. Plates were rocked for 1 h at room temperature. Then MEB buffer was aspirated and 50 μl of CHAPS buffer (50 mM Tris-Cl, pH 7.4, 150 mM NaCl, 1% CHAPS, 1 mM EDTA, 1 mM EGTA, complete protease inhibitors (Roche), PhosSTOP (Roche)) was added to each well. Plates were rocked for 1 hour at 4° C., then 45 μl cell lysate from each well were transferred to ELISA plates coated with MCL1 antibody. Plates were incubated overnight in the cold room with rocking.
On the third day, ELISA plates were washed once with 250 μl 1×PBST. Streptavidin-poly-HRP (Thermo Fisher Scientific) was diluted to 20 ng/ml in Odyssey blocking buffer plus 0.05% Triton-100, and 100 μl was added to each well of the ELISA plate. Plates were incubated at RT for 1 hour with rocking, then washed with 100 μL 1×PBST for 3 times. Each SuperSignal ELISA Femto Maximum Sensitivity substrate was added to a 50-ml tube and mixed, then 100 μl of mixed substrate was added to each well. Plates were shaken for 1 minute then luminescence was measured by Envision plate reader […]. Signal of each well were normalized by no-compound control and no-cell control. IC50 was calculated using Graphic Pad PRISM software.

Assay [3] deals with BCL-2 (Homo sapiens, UniProt P10415). As to the kind of experiment: Protein-protein interaction assay BCL-2/Bad BH3 peptide, TR-FRET (BCL-2 assay, Assay 3). It counts as binding. The settings on record: His-BCL-2 / Bad BH3 peptide, median.
Description: The dose-dependent inhibition by the compounds described in this invention of the interaction between BCL-2 and the BH3 domain of Bad (both human) was determined using a steady state binding competition assay with time-resolved fluorescence energy transfer (TR-FRET) readout. For that purpose BCL-2 (amino acids 1-211, C-terminal fused to a hexahistidine (6×His) tag (SEQ ID 5) and a synthetic Bad BH3-derived peptide of sequence Biotin-PEG2-PEG2-[sequence]-Nle-[sequence]-amide (SEQ ID 4) served as protein receptor and tracer ligand respectively. The recombinant BCL-2 protein (expressed in E. coli) was purchased from BPS Bioscience (San Diego, Calif., USA). The Bad BH3-derived peptide can be obtained from e.g. Biosyntan (Berlin, Germany).
For that, 100-fold concentrated DMSO solutions were prepared by serial dilutions (1:3.4) of a 2 mM stock solution in a clear, 384-well microtiter plate (Greiner Bio-One, Frickenhausen, Germany). From there, 50 nl were transferred in a dark test plate (Greiner Bio-One, Frickenhausen, Germany). The assay was initiated by addition of 2 μl of a 2,5-fold concentrated His-BCL-2 solution (usually for a 1 nM end concentration in 5 μl reaction volume) in aqueous assay buffer [50 mM Tris/HCl pH 7, 100 mM sodium chloride (NaCl), 50 mM potassium fluoride (KF), 0.005% Tween-20, 2 mM DTT, 0.1% bovine gamma globulin (BGG)] to the compounds in the assay plate. This was followed by a 10-minute incubation step at 22° C. for pre-equilibration of the putative complex between His-BCL-2 and the compounds.
The mixture was incubated in the dark for one hour at 22° C. and then overnight at 4° C. The formation of BCL-2/Bad complexes was determined by measuring the resonance energy transfer of the anti-His-Eu-cryptate antibody to the streptavidin-XL665 present in the reaction. For that purpose, the fluorescence emission at 620 nm and 665 nm after excitation at 330-350 nm was measured in a TR-FRET measuring instrument, for instance a Rubystar or a Pherastar (both from BMG Lab Technologies, Offenburg, Germany) or a Viewlux (Perkin-Elmer). The ratio of the emission at 665 nm and at 622 nm was used as indicator of the amount of BCL-2/Bad complexes present.
(§2) The resulting data (ratio) were normalized, taking 0% inhibition as the mean value of control measurements (usually 32 data points) where all reagents were included. In this case 50 nl DMSO were used instead of compounds. […] IC50 values were determined by regression analysis based on a 4 parameter equation (minimum, maximum, IC50, Hill; Y=Max+(Min−Max)/(1+(X/IC50)^Hill) using the Screener Software (Genedata).
Assay [4] relates to MV-4-11. Description: Anti-proliferative effect in MV-4-11 cells, CellTiter-Glo (Assay 7). It counts as cell-based. Summed up:
as §1

Assay [5] deals with BCL-XL (Homo sapiens, UniProt Q07817). Description: Protein-protein interaction assay BCL-XL/Bad BH3 peptide, TR-FRET (BCL-XL assay, Assay 2). The settings on record: His-BCL-XL / Bad BH3 peptide, median. The format is binding.
Description: Protein-Protein Interaction Assay: BCL-XL/Bad BH3 Peptide (BCL-XL Assay)
The dose-dependent inhibition by the compounds described in this invention of the interaction between BCL-XL and the BH3 domain of Bad (both human) was determined using a steady state binding competition assay with time-resolved fluorescence energy transfer (TR-FRET) readout. For that purpose BCL-XL (amino acids 1-212, C-terminal fused to a hexahistidine (6×His) tag (SEQ ID 3) and a synthetic Bad BH3-derived peptide of sequence Biotin-PEG2-PEG2-[sequence]-Nle-[sequence]-amide (SEQ ID 4) served as protein receptor and tracer ligand respectively. The recombinant BCL-XL protein (expressed in E. coli) was purchased from BPS Bioscience (San Diego, Calif., USA). The Bad BH3-derived peptide can be obtained from e.g. Biosyntan (Berlin, Germany).
For that, 100-fold concentrated DMSO solutions were prepared by serial dilutions (1:3.4) of a 2 mM stock solution in a clear, 384-well microtiter plate (Greiner Bio-One, Frickenhausen, Germany). From there, 50 nl were transferred in a dark test plate (Greiner Bio-One, Frickenhausen, Germany). The assay was initiated by addition of 2 μl of a 2,5-fold concentrated His-BCL-XL solution (usually for a 1 nM end concentration in 5 μl reaction volume) in aqueous assay buffer [50 mM Tris/HCl pH 7, 100 mM sodium chloride (NaCl), 50 mM potassium fluoride (KF), 0.005% Tween-20, 2 mM DTT, 0.1% bovine gamma globulin (BGG)] to the compounds in the assay plate. This was followed by a 10-minute incubation step at 22° C. for pre-equilibration of the putative complex between His-BCL-XL and the compounds.
The mixture was incubated in the dark for one hour at 22° C. and then overnight at 4° C. The formation of BCL-XL/Bad complexes was determined by measuring the resonance energy transfer of the anti-His- Eu-cryptate antibody to the streptavidin-XL665 present in the reaction. For that purpose, the fluorescence emission at 620 nm and 665 nm after excitation at 330-350 nm was measured in a TR-FRET measuring instrument, for instance a Rubystar or a Pherastar (both from BMG Lab Technologies, Offenburg, Germany) or a Viewlux (Perkin-Elmer). The ratio of the emission at 665 nm and at 622 nm was used as indicator of the amount of BCL-XL/Bad complexes present.
as §2
For assay [6], the target named is MCL-1 (Homo sapiens, UniProt Q07820, K194A/K197A/R201A). As to the kind of experiment: Protein-compound interaction assay, surface plasmon resonance (SPR assay, Assay 8). It counts as binding. The settings on record: geometric mean; for Kd: KD [M]; for kon: read-out: kon [1/M 1/s], SPR, immobilized MBP-MCL-1, 25° C. From the text:
Protein-Compound Interaction Assay (SPR Assay)
The ability of the compounds described in this invention to bind to MCL-1 may be determined using surface plasmon resonance (SPR). This allows for the quantification of binding in terms of the equilibrium dissociation constant (KD [M]), as well as association and dissociation rate constants (kon [1/M 1/s] and koff [1/s], respectively). The measurements may be performed using Biacore® T200 or Biacore® S200 instruments (GE Healthcare).
Briefly, carboxymethylated dextran biosensor chips (Series S Sensor Chip CM5, GE Healthcare) were activated with 1-ethyl-3-(3-dimethylaminopropyl)-carbodiimide hydrochloride (EDC) and N-hydroxysuccinimide (NHS) according to the supplier's instructions. MBP-MCL-1 was diluted in 1×PBS-P+ (GE Healthcare) and injected on the activated chip surface. Subsequently, a solution of 1 M ethanolamine-HCl (GE Healthcare) was injected to block unreacted groups, resulting in approximately 400-2500 response units (RU) of immobilized protein. A reference surface was generated by treatment with NHS-EDC and ethanolamine-HCl. […] Compounds were injected for 60 s followed by a dissociation time of up to 1000 s.
The double-referenced sensorgrams were fit to a simple reversible Langmuir 1:1 reaction mechanism as implemented in the Biacore® T200 and S200 evaluation software (T200 evaluation software version 2.0 and S200 evaluation software version 1.0, GE Healthcare).

In assay [7] the test system is A2780. Description: Anti-proliferative effect in A2780 cells, CellTiter-Glo (Assay 7). The format is cell-based. The settings on record: several values per example. Summed up:
as §1

The mark [8] stands for this setting: SUDHL5, 72 hours incubation, CellTiter-Glo, median, read-out: Antiproli SUDHL5 [M] (median).
The mark [9] stands for this setting: MV-4-11, 72 hours incubation, CellTiter-Glo; several values per example; read-out: Antiproli MV-4-11.
[10] abbreviates: SPR, immobilized MBP-MCL-1, 25° C.
The mark [11] stands for this setting: read-out: koff [1/s], SPR, immobilized MBP-MCL-1, 25° C.
Where [12] appears, read: read-out: Antiproli SUDHL5 [M] (median), SUDHL5, 72 hours incubation, CellTiter-Glo.

Several values for one entry are separate records, joined by “and”; a condition that tells them apart may be missing. Identical values can stand only once. Counter-ions that a name gives are not always drawn. Like-named read-outs stand apart in the source and are kept apart here.

BCL-2, sequence (P10415 1-211): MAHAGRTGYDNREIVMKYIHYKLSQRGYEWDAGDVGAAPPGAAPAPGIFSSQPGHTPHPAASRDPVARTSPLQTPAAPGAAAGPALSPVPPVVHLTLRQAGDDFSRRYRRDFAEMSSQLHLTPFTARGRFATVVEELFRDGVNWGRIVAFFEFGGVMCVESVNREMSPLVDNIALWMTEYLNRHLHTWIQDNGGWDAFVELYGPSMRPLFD
MCL-1, sequence (Q07820 173-321 K194A/K197A/R201A, looked up): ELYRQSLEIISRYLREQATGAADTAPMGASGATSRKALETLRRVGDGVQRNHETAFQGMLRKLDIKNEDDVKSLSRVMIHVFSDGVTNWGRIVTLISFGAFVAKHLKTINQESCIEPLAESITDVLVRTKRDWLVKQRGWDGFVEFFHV
BCL-XL, sequence (Q07817 1-212): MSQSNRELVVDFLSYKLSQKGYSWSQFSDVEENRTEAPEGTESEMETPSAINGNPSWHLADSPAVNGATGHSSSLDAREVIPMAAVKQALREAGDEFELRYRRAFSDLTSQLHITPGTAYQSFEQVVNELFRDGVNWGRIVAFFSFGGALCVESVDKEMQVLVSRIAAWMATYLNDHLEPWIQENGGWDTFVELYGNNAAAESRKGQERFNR
T1 sequence (Q07820 whole entry): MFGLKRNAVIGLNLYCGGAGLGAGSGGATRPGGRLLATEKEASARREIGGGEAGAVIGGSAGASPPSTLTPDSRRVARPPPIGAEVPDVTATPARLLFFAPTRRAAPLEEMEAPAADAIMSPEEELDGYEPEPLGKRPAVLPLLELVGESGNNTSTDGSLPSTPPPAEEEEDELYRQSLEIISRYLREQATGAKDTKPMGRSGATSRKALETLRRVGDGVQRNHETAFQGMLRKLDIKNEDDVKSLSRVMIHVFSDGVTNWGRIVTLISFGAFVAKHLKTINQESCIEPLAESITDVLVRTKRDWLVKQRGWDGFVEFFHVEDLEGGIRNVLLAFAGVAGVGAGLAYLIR

On to `CCc1nn(C)c2c1-c1c(Cl)ccc3c(CCCOc4cccc5cc(F)ccc45)c(C(=O)O)n(c13)Cc1ccccc1COC2` (single isomer, unassigned; enantiomer 1) [Example 58, (+)-3-Chloro-4-ethyl-17-{3-[(6-fluoronaphthalen-1-yl)oxy]propyl}-6-methyl-6,7,9,14-tetrahydro-indolo[7,1-fg]pyrazolo[3,4-d][2,8]benzoxazacycloundecine-16-carboxylic acid-N-ethylethanamine Salt (Enantiomer 1)], for which the IC50 in assay [1] (setting [8]) was found to be 1.2e-06 M; in assay [2] (median, read-out: PIxEL [M] (median)), 8.34e-07 M; in assay [3], 10.6 µM; in assay [4] (setting [9]) it was 1.36 µM; in assay [5] it was 17.3 µM.

On to `Cc1c2c(nn1C)COCc1ncccc1Cn1c(C(=O)O)c(CCCOc3cccc4ccccc34)c3cccc-2c31` (single isomer, unassigned; enantiomer 1) [Example 8, 4,5-Dimethyl-17-[3-(naphthalen-1-yloxy)propyl]-5,7,9,14-tetrahydropyrazolo[4′,3′:9,10]-pyrido[2′,3′:3,4][1,6]oxazacycloundecino[8,7,6-hi]indole-16-carboxylic acid-N-ethylethanamine Salt (Enantiomer 1)], for which the IC50 was 3.2e-06 M in assay [1] (setting [8]), 1.82e-05 M in assay [2] (PIxEL [M] (median)), > 20 µM in assay [3] and > 20 µM in assay [5]. In assay [6] (setting [10]), this compound had a Kd of 3.4e-09 M.

Regarding `Cc1c2c(nn1C)COCc1ccccc1Cn1c(C(=O)O)c(CCCOc3cccc4ccccc34)c3ccc(Cl)c-2c31` (single isomer, unassigned; enantiomer 1) [Example 37, (−)-3-Chloro-4,5-dimethyl-17-[3-(naphthalen-1-yloxy)propyl]-5,7,9,14-tetrahydroindolo[7,1-fg]pyrazolo[3,4-d][2,8]benzoxazacycloundecine-16-carboxylic Acid (Enantiomer 1)], in assay [6] (setting [10]), the affinity, expressed as Kd, was 4.7e-09 M. For the same compound, the koff in assay [6] (setting [11]) amounted to 0.011 s⁻¹. Besides, in assay [6], the kon was 2.4e+06 M⁻¹ s⁻¹. Besides, the results for the IC50 in assay [2] (PIxEL [M] (median)), in assay [3] and in assay [5] were 1.61e-06 M, > 20 µM and > 20 µM, respectively.

Take `Cc1c2c(nn1C)COCc1ccccc1Cn1c(C(=O)O)c(CCCOc3cccc4cc(F)ccc34)c3ccc(Cl)c-2c31` (single isomer, unassigned; enantiomer 2) [Example 50, (+)-3-Chloro-17-{3-[(6-fluoronaphthalen-1-yl)oxy]propyl}-4,5-dimethyl-5,7,9,14-tetrahydroindolo[7,1-fg]pyrazolo[3,4-d][2,8]benzoxazacycloundecine-16-carboxylic acid-N-ethylethanamine Salt (Enantiomer 2)]: the IC50 in assay [1] (setting [8]) was 1.5e-06 M; in assay [2] (PIxEL [M] (median)), 1.69e-06 M; in assay [7] (A2780, 72 hours incubation, CellTiter-Glo, read-out: Antiproli A2780), 1.17e-05 M and 8.65e-06 M; in assay [4] (setting [9]), 2.21 µM and 3.07 µM and 2.53 µM. Besides, the Kd in assay [6] (setting [10]) was 3.8e-09 M. The “koff” value in assay [6] (setting [10]) is 0.0061 s⁻¹. Moreover, the “kon [1/M 1/s]” value in assay [6] (setting [10]) was 1.6E6 1/M 1/s.

For `CCc1c2c(nn1C)COCc1ccccc1Cn1c(C(=O)O)c(CCCOc3cccc4cc(F)ccc34)c3ccc(Cl)c-2c31` (single isomer, unassigned; enantiomer 2) [Example 56, (+)-3-Chloro-4-ethyl-17-{3-[(6-fluoronaphthalen-1-yl)oxy]propyl}-5-methyl-5,7,9,14-tetrahydro-indolo[7,1-fg]pyrazolo[3,4-d][2,8]benzoxazacycloundecine-16-carboxylic Acid N-ethylethanamine Salt (Enantiomer 2)], the IC50 is 2.1e-06 M in assay [1] (setting [12]); 2.35e-06 M in assay [2] (PIxEL [M] (median)); 2.77 µM in assay [4] (read-out: Antiproli MV-4-11; MV-4-11, 72 hours incubation, CellTiter-Glo; several values per example).

On to `Cc1c2c(nn1C)COCc1ccccc1Cn1c(C(=O)O)c(CCCOc3cccc4ccccc34)c3ccc(F)c-2c31` (single isomer, unassigned; enantiomer 1) [Example 68, (−)-3-Fluoro-4,5-dimethyl-17-{3-[(naphthalen-1-yl)oxy]propyl}-5,7,9,14-tetrahydroindolo[7,1-fg]pyrazolo[3,4-d][2,8]benzoxazacycloundecine-16-carboxylic acid-N-ethylethanamine Salt (Enantiomer 1)], for which the IC50 in assay [1] (setting [12]) was 1.4e-06 M; in assay [2] (PIxEL [M] (median)) it was 2.16e-06 M; in assay [7] (Homo sapiens, A2780, 72 h, read-out: Antiproli A2780 [M], A2780, 72 hours incubation, CellTiter-Glo) it was 2.9e-05 M; in assay [3], > 20 µM; in assay [5], > 20 µM.

As to `Cc1c2c(nn1C)COCc1ccccc1Cn1c(C(=O)O)c(CCCOc3cccc4cc(F)ccc34)c3ccc(Cl)c-2c31` (racemic) [Example 48, (rac)-3-Chloro-17-{3-[(6-fluoronaphthalen-1-yl)oxy]propyl}-4,5-dimethyl-5,7,9,14-tetrahydroindolo[7,1-fg]pyrazolo[3,4-d][2,8]benzoxazacycloundecine-16-carboxylic Acid], the IC50 in assay [1] (Homo sapiens, SU-DHL-5, 72 h, SUDHL5, 72 hours incubation, CellTiter-Glo, median, read-out: Antiproli SUDHL5 [M] (median)) was 1.6e-06 M; in assay [4] (Homo sapiens, MV4-11, 72 h, MV-4-11, 72 hours incubation, CellTiter-Glo; several values per example; read-out: Antiproli MV-4-11), 4.13 µM; in assay [4] (setting [9]), 4.81 µM. The affinity in assay [6] (setting [10]), expressed as Kd, was 8e-09 M. The koff in assay [6] (setting [11]) is 0.006 s⁻¹. For the same compound, the kon in assay [6] came to 750000 M⁻¹ s⁻¹.
